The subject of one assay is HIV-1 strain IIIb. The assay is described as follows: Inhibition of virus spread in HIV-infected MT-4 cells (p24 antigen). It counts as cell-based. The following applies: Human immunodeficiency virus 1, IIIB, MT4, 72 h, concentration giving greater than 95% reduction in p24 antigen production relative to untreated controls, 3 days incubation, read-out: cell culture inhibitory concentration (CIC95). As to the method: MT cells were infected at Day O at a concentration of 250,000 per ml with a 1:2000 dilution of HIV-1 strain IIIb stock (final 125 pg p24/ml; sufficient to yield ≤1% infected cells on day 1 and 25-100% on day 4). Cells were infected and grown in the following medium: RPMI 1640 (Whittaker BioProducts), 10% inactivated fetal bovine serum, 4 mM glutamine (Gibco Labs) and 1:100 Penicillin-Streptomycin (Gibco Labs).
The mixture was incubated overnight at 37° C. in 5% CO2 atmosphere.
Serial two-fold dilutions of compound were prepared in cell culture medium. At Day 1, aliquots of 125 μl of compound were added to equal volumes of HIV-infected MT-4 cells (50,000 per well) in a 96-well microtiter cell culture plate. Incubation was continued for 3 days at 37° C. in 5% CO2 atmosphere.
Using a multichannel pipettor, the settled cells were resuspended and a 125 μl harvested into a separate microtiter plate. […]
The concentration of HIV p24 antigen was measured by an enzyme immunoassay,described as follows. Aliquots of p24 antigen to be measured were added to microwells coated with a monoclonal antibody specific for HIV core antigen. […]
The cell culture inhibitory concentration (ClC95) for each compound is defined as that concentration which inhibited by greater than 95% the spread of infection, as assessed by a greater than 95% reduction in p24 antigen production relative to untreated controls.

The target in assay [1] is T1, recombinant HIV reverse transcriptase (HIV RTR) (Human immunodeficiency virus type 1 group M subtype B, UniProt P04585).
T1 construct: recombinant HIV reverse transcriptase (HIV RTR)
Briefly: Reverse transcriptase assay: incorporation of tritiated dGMP into acid-precipitable cDNA. The class given is biochemical. As to the method: The assay measures the incorporation of tritiated deoxyguanosine monophosphate by recombinant HIV reverse transcriptase (HIV RTR) (or other RT) into acid-precipitable cDNA at the Km values of dGTP and poly r(C).oligo d(G)12-18.
Thirty uL of a reaction mixture containing equal volumes of: 500 mM Tris.HCl (pH 8.2), 300 mM MgCl2, 1200 mM KCl, 10 mM DTT, 400 μg/mL poly r(c).oligo d(G) [prepared by dissolving 1.5 mg (25 U) poly r(C).oligo d(G) in 1.5 ml sterile distilled H2 O and diluting to 400 μg/ml], 0.1 μCi/μl [^3 H] dGTP, 160 μM dGTP, was added to 10 μl sterile distilled H2 O, 2.5 μl of potential inhibitor and 10 μL of 5 nM purified HIV RTR in tubes. The mixture was incubated at 37° C. for 45 minutes.
After incubation is complete, the tubes were cooled in ice for 5 minutes. Ice-cold 13% TCA containing 10 mM NaPPi (200 μl) are added and the mixture incubated on ice for 30 minutes. The precipitated cDNA is removed by filtration using presoaked glass filters [TCA, NaPPi ]. The precipitate is then washed with 1N HCl, 10 mM NaPPi. The filter discs are then counted in a scintillation counter.
Under these conditions [dGTP] and poly r(C).oligo d(G)12-18 each are approximately equal to the appropriate Km value. Approximately 5-6,000 cpm of [^3 H] GMP are incorporated into acid-precipitable material. The RT reaction is concentration- and time-dependent. […]

Molecules are shown by their SMILES.

Consider `[O-][S+](Cc1[nH]c2ccccc2c1Sc1ccccc1)c1ccccc1` (stereo not drawn) [compound A, 2-Phenylsulfinylmethyl-3-phenylthioindole], for which, in the assay on HIV-1 strain IIIb, the IC95 was around 100 nM. Moreover, in assay [1] ([dGTP] and poly r(C).oligo d(G)12-18 at approximately Km, 37° C., 45 minutes, read-out: calculated IC50), the IC50 was around 60 nM. The “incorporation of tritiated deoxyguanosine monophosphate into acid-precipitable cDNA” value in assay [1] (at the Km values of dGTP and poly r(C).oligo d(G)12-18) was “inhibits this incorporation”.

In general, IC50 refers to the concentration that gives 50% inhibition.

Values taken from patent publication US5124327A, “HIV reverse transcriptase” (Merck & Co., Inc., priority 1991, dated 1992).
